Test results: patent US12036315B2, “Pharmaceutical composition for oral administration comprising enzalutamide” (Astellas Pharma Inc., priority 2017, dated 2024)
≈ marks a conversion by molar mass, not a printed value.

Test: Solubility of enzalutamide in water
Type: physicochemical
Conditions: 20° C.±5° C.
Description: The term “to improve solubility” as used herein means that the solubility, the dissolved concentration, or the dissolved rate of enzalutamide in a solvent is increased.
It is possible to obtain good solubility and/or good dissolution properties by applying the technology of the present invention. Further, it is possible to obtain good oral absorbability by applying the technology of the present invention.

solubility: 2 µg/mL (≈ 4.31 µM)
SMILES: CNC(=O)c1ccc(N2C(=S)N(c3ccc(C#N)c(C(F)(F)F)c3)C(=O)C2(C)C)cc1F [Enzalutamide, 4-{3-[4-cyano-3-(trifluoromethyl)phenyl]-5,5-dimethyl-4-oxo-2-sulfanylideneimidazolidin-1-yl}-2-fluoro-N-methylbenzamide]
